How the values were obtained:
[1] = system: PfCRT; experiment: Test of solutes as potential co-substrates for influx of VF-6 via PfCRT into the oocyte; format: cell-based, Plasmodium falciparum; parameters: key: X: Compounds that have been tested as potential co-substrates but are not required for influx of VF-6 via PfCRT into the oocyte; conditions: X = tested
[2] = target: PfCRT^Dd2 (Plasmodium falciparum, UniProt Q9N623, A220S/I356T/K76T/M74I/N326S/N75E/Q271E/R371I); experiment: [3H]CQ uptake into Xenopus oocytes, cis-inhibition by unlabelled solute; format: cell-based; conditions: for Uptake of [3H]CQ (% PfCRTDd2 control), cis-inhibition / PfCRT-mediated [3H]CQ transport, cis-inhibition (% PfCRTDd2 control): PfCRTDd2 oocytes; for Uptake of [3H]CQ (% PfCRTDd2 control), cis-inhibition / Uptake of [3H]CQ (% PfCRTDd2 control), cis-inhibition, PfCRTDd2: total [3H]CQ transport; for Uptake of [3H]CQ (% PfCRTDd2 control), cis-inhibition: normalised to the oocyte type control; for PfCRT-mediated [3H]CQ transport, cis-inhibition (% PfCRTDd2 control): background [3H]CQ accumulation subtracted, normalised to oocyte type control; for Uptake of [3H]CQ (% PfCRTDd2 control), cis-inhibition, PfCRTDd2: mean ± SEM, SEM
Sequence of PfCRT^Dd2 (Q9N623 whole entry A220S/I356T/K76T/M74I/N326S/N75E/Q271E/R371I): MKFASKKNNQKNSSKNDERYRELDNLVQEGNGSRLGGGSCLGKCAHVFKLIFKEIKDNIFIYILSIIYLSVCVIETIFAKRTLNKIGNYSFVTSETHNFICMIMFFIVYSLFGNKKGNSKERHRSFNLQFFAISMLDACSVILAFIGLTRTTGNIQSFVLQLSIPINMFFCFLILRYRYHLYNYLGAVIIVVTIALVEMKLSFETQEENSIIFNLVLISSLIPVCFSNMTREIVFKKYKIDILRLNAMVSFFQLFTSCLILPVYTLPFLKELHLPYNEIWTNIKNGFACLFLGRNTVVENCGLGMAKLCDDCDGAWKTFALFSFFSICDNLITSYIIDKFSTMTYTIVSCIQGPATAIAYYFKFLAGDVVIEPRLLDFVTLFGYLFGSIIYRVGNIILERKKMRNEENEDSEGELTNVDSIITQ
In short: (§1)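 Inward transport into oocyte cytosol from pH 5.5 medium models PfCRT efflux from the acidic digestive vacuole. Incubation 1.5 h, 27.5 °C; termination by ice-cold washes; lysate radioactivity counted.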

[3] = target: PfCRT^Ecu1110 (Plasmodium falciparum, UniProt Q9N623, A220S/I356L/K76T/N326D); experiment: as above; format: cell-based; conditions: for Uptake of [3H]CQ (% PfCRTEcu1110 control), cis-inhibition / PfCRT-mediated [3H]CQ transport, cis-inhibition (% PfCRTEcu1110 control): PfCRTEcu1110 oocytes; for Uptake of [3H]CQ (% PfCRTEcu1110 control), cis-inhibition / Uptake of [3H]CQ (% PfCRTDd2 control), cis-inhibition, PfCRTEcu1110: total [3H]CQ transport; for Uptake of [3H]CQ (% PfCRTEcu1110 control), cis-inhibition: normalised to the oocyte type control; for PfCRT-mediated [3H]CQ transport, cis-inhibition (% PfCRTEcu1110 control): background [3H]CQ accumulation subtracted, normalised to oocyte type control; for [3H]CQ transport (% PfCRTEcu1110 control), cis-inhibition, PfCRTEcu1110: PfCRT-mediated component (background subtracted), sheet title says normalised to PfCRTDd2 control; for [3H]CQ transport (% PfCRTEcu1110 control), cis-inhibition, PfCRTEcu1110 / Uptake of [3H]CQ (% PfCRTDd2 control), cis-inhibition, PfCRTEcu1110: mean ± SEM, SEM
Sequence of PfCRT^Ecu1110 (Q9N623 whole entry A220S/I356L/K76T/N326D): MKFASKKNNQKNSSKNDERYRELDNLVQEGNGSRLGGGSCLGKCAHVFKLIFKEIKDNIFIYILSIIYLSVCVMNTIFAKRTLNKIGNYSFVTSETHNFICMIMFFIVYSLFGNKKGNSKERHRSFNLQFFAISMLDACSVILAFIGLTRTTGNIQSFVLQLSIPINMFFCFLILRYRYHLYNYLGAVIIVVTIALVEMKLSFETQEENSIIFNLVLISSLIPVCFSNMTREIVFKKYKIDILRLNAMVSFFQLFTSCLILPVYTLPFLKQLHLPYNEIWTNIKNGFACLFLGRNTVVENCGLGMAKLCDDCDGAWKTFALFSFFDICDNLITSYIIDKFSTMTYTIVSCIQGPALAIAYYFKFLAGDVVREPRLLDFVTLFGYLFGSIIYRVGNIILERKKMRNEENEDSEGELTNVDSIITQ
In short: as §1

[4] = system: non-expressing oocytes; experiment: cells; format: cell-based, Xenopus laevis; conditions: total [3H]CQ transport; for Uptake of [3H]CQ (% non-expressing oocyte control), cis-inhibition: non-expressing oocytes, normalised to the oocyte type control; for Uptake of [3H]CQ (% PfCRTDd2 control), cis-inhibition, non-expressing oocytes: mean ± SEM, SEM
In short: as §1

[5] = target: PfCRT^3D7 (Plasmodium falciparum, UniProt Q8IBZ9); experiment: cell-based; format: cell-based; conditions: total [3H]CQ transport; for Uptake of [3H]CQ (% PfCRT3D7 control), cis-inhibition: PfCRT3D7 oocytes, normalised to the oocyte type control; for Uptake of [3H]CQ (% PfCRTDd2 control), cis-inhibition, PfCRT3D7: mean ± SEM, SEM
Sequence of PfCRT^3D7 (Q8IBZ9 59-398): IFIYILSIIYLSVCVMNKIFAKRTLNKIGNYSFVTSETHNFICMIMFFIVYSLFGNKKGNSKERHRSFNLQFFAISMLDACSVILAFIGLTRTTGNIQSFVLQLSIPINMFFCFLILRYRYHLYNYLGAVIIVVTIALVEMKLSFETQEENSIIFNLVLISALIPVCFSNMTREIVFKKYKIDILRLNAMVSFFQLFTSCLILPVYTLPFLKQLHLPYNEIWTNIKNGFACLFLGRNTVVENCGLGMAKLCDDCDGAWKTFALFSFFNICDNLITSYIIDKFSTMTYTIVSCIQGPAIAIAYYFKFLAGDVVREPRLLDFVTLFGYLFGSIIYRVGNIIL
In short: as §1

Question: Which “Tested as potential co-substrate but not required for influx of VF-6 via PfCRT into the oocyte” value [1] does the source give for `NC(=O)C[C@H](N)C(=O)O` [L-asparagine] here?
Answer: X

Question: And the “Uptake of [3H]CQ (% PfCRTDd2 control), cis-inhibition” value ([2]; [test solute] = 0.5 mM)?
Answer: 100 ± 5.3 % PfCRTDd2 control

Question: And the “Uptake of [3H]CQ (% PfCRTDd2 control), cis-inhibition” value ([2]; [test solute] = 2 mM)?
Answer: 100 ± 8.5 % PfCRTDd2 control

Question: What about the “PfCRT-mediated [3H]CQ transport, cis-inhibition (% PfCRTDd2 control)” value ([2]; [test solute] = 0.5 mM) of the same molecule?
Answer: 98 ± 4.1 % PfCRTDd2 control

Question: What about the “PfCRT-mediated [3H]CQ transport, cis-inhibition (% PfCRTDd2 control)” value ([2]; [test solute] = 1 mM) of the same molecule?
Answer: 99 ± 6.2 % PfCRTDd2 control

Question: What about the “PfCRT-mediated [3H]CQ transport, cis-inhibition (% PfCRTDd2 control)” value ([2]; [test solute] = 2 mM) of the same molecule?
Answer: 95 ± 3.5 % PfCRTDd2 control

Question: What about the “Uptake of [3H]CQ (% PfCRTDd2 control), cis-inhibition, PfCRTDd2” value ([2]; [test solute] = 0.5 mM) of the same molecule?
Answer: 100 ± 5.3 % PfCRTDd2 control

Question: And the “Uptake of [3H]CQ (% PfCRTDd2 control), cis-inhibition, PfCRTDd2” value ([2]; [test solute] = 1 mM)?
Answer: 101 ± 8.1 % PfCRTDd2 control

Question: What about the “Uptake of [3H]CQ (% PfCRTDd2 control), cis-inhibition, PfCRTDd2” value ([2]; [test solute] = 2 mM) of the same molecule?
Answer: 100 ± 8.5 % PfCRTDd2 control

Question: What about the “Uptake of [3H]CQ (% PfCRTEcu1110 control), cis-inhibition” value ([3]; [test solute] = 0.5 mM) of the same molecule?
Answer: 96 ± 6.6 % PfCRTEcu1110 control

Question: What about the “Uptake of [3H]CQ (% PfCRTEcu1110 control), cis-inhibition” value ([3]; [test solute] = 1 mM) of the same molecule?
Answer: 88 ± 6.1 % PfCRTEcu1110 control

Question: What about the “Uptake of [3H]CQ (% PfCRTEcu1110 control), cis-inhibition” value ([3]; [test solute] = 2 mM) of the same molecule?
Answer: 102 ± 6.2 % PfCRTEcu1110 control

Question: And the “PfCRT-mediated [3H]CQ transport, cis-inhibition (% PfCRTEcu1110 control)” value ([3]; [test solute] = 0.5 mM)?
Answer: 94 ± 3.6 % PfCRTEcu1110 control

Question: And the “PfCRT-mediated [3H]CQ transport, cis-inhibition (% PfCRTEcu1110 control)” value ([3]; [test solute] = 1 mM)?
Answer: 84 ± 4.9 % PfCRTEcu1110 control

Question: What about the “PfCRT-mediated [3H]CQ transport, cis-inhibition (% PfCRTEcu1110 control)” value ([3]; [test solute] = 2 mM) of the same molecule?
Answer: 100 ± 5.1 % PfCRTEcu1110 control

Question: What about the “[3H]CQ transport (% PfCRTEcu1110 control), cis-inhibition, PfCRTEcu1110” value ([3]; [test solute] = 1 mM) of the same molecule?
Answer: 25 ± 0.6 % PfCRTEcu1110 control

Question: And the “[3H]CQ transport (% PfCRTEcu1110 control), cis-inhibition, PfCRTEcu1110” value ([3]; [test solute] = 2 mM)?
Answer: 30 ± 0.2 % PfCRTEcu1110 control

Question: What about the “Uptake of [3H]CQ (% PfCRTDd2 control), cis-inhibition, PfCRTEcu1110” value ([3]; [test solute] = 0.5 mM) of the same molecule?
Answer: 31 ± 1.5 % PfCRTDd2 control

Question: What about the “Uptake of [3H]CQ (% PfCRTDd2 control), cis-inhibition, PfCRTEcu1110” value ([3]; [test solute] = 1 mM) of the same molecule?
Answer: 28 ± 1.8 % PfCRTDd2 control

Question: What about the “Uptake of [3H]CQ (% PfCRTDd2 control), cis-inhibition, PfCRTEcu1110” value ([3]; [test solute] = 2 mM) of the same molecule?
Answer: 33 ± 2.2 % PfCRTDd2 control

Question: And the “Uptake of [3H]CQ (% non-expressing oocyte control), cis-inhibition” value ([4]; [test solute] = 0.5 mM)?
Answer: 100 ± 5.6 % non-expressing oocyte control

Question: What about the “Uptake of [3H]CQ (% non-expressing oocyte control), cis-inhibition” value ([4]; [test solute] = 1 mM) of the same molecule?
Answer: 98 ± 5.3 % non-expressing oocyte control

Question: What about the “Uptake of [3H]CQ (% non-expressing oocyte control), cis-inhibition” value ([4]; [test solute] = 2 mM) of the same molecule?
Answer: 100 ± 4.6 % non-expressing oocyte control

Question: What about the “Uptake of [3H]CQ (% PfCRTDd2 control), cis-inhibition, non-expressing oocytes” value ([4]; [test solute] = 0.5 mM) of the same molecule?
Answer: 3.9 ± 0.02 % PfCRTDd2 control

Question: What about the “Uptake of [3H]CQ (% PfCRTDd2 control), cis-inhibition, non-expressing oocytes” value ([4]; [test solute] = 1 mM) of the same molecule?
Answer: 2.8 ± 0.04 % PfCRTDd2 control

Question: And the “Uptake of [3H]CQ (% PfCRTDd2 control), cis-inhibition, non-expressing oocytes” value ([4]; [test solute] = 2 mM)?
Answer: 2.5 ± 0.05 % PfCRTDd2 control

Question: What about the “Uptake of [3H]CQ (% PfCRT3D7 control), cis-inhibition” value ([5]; [test solute] = 0.5 mM) of the same molecule?
Answer: 98 ± 2.4 % PfCRT3D7 control

Question: What about the “Uptake of [3H]CQ (% PfCRT3D7 control), cis-inhibition” value ([5]; [test solute] = 1 mM) of the same molecule?
Answer: 98 ± 3.5 % PfCRT3D7 control

Question: And the “Uptake of [3H]CQ (% PfCRT3D7 control), cis-inhibition” value ([5]; [test solute] = 2 mM)?
Answer: 101 ± 4.7 % PfCRT3D7 control

Question: And the “Uptake of [3H]CQ (% PfCRTDd2 control), cis-inhibition, PfCRT3D7” value ([5]; [test solute] = 0.5 mM)?
Answer: 2.6 ± 0.04 % PfCRTDd2 control

Question: And the “Uptake of [3H]CQ (% PfCRTDd2 control), cis-inhibition, PfCRT3D7” value ([5]; [test solute] = 1 mM)?
Answer: 2.2 ± 0.03 % PfCRTDd2 control

From paper PMC7413254 (Nature Communications, 2020)
